The experiment has as its system rat aorta. Kind of experiment: reduction of calcium-induced contraction (response to calcium chloride) of spirally cut strips of rat aorta in vitro. In kind it is cell-based. On the procedure:
The ability of the compounds to inhibit the movement of calcium into the cell is shown by their effectiveness in reducing the response of isolated […] to an increase in calcium ion concentration in vitro. The test is performed by mounting spirally cut strips of rat aorta with one end fixed and the other attached to a force transducer. The tissue is immersed in a bath of physiological saline solution containing potassium ions at a concentration of 45 millimolar and no calcium. Calcium chloride is added to the bath with a pipette to give a final calcium ion concentration of 2 millimolar. The change in tension caused by the resulting contraction of the tissue is noted. The bath is drained and replaced with fresh saline solution and, after 45 minutes, the test is repeated with the particular compound under test present in the saline solution. The concentration of compound required to reduce the response by 50% is recorded.

[1] abbreviates: ranking among the tested Examples.
The mark [2] stands for this setting: read-out: molar concentration of the compounds required to reduce the response by 50% (IC50); isolated rat aorta strips; 45 millimolar potassium; 2 millimolar calcium; retest after 45 minutes with compound.
The mark [3] stands for this setting: 0.75 h; isolated rat aorta strips; 45 millimolar potassium; 2 millimolar calcium; retest after 45 minutes with compound; read-out: molar concentration of the compounds required to reduce the response by 50% (IC50).
[4] abbreviates: isolated rat aorta strips; 45 millimolar potassium; 2 millimolar calcium; retest after 45 minutes with compound; read-out: molar concentration of the compounds required to reduce the response by 50% (IC50).

Counter-ions that a name gives are not always drawn. Like-named read-outs stand apart in the source and are kept apart here.

Take `CCOC(=O)C1=C(COCCN)NC(C)=C(C(=O)OC)C1c1ccccc1Cl.O=C(O)/C=C\C(=O)O` (stereo not drawn) [Example 22, 2-[(2-aminoethoxy)methyl]-4-(2-chlorophenyl)-3-ethoxycarbonyl-5-methoxycarbonyl-6-methyl-1,4-dihydropyridine maleate]: the “activity ranking by IC50 (the smaller the concentration the more active the compound)” value (“activity ranking by IC50” for short) under setting [1] is on record as “most active compounds”. Besides, under setting [2], the IC50 was 3.2 nM. In the case of `CCOC(=O)C1=C(COCCN)NC(C)=C(C(=O)OC)C1c1ccccc1Cl` (stereo not drawn) [Example 9], the IC50 under setting [3] turned out to be 3.2 nM. For the same molecule, the “activity ranking by IC50” value under setting [1] is given as “most active compounds”. Turning to `CCOC(=O)C1=C(COCCN)NC(C)=C(C(=O)OC)C1c1ccccc1Cl.O=C(O)/C=C\C(=O)O` (stereo not drawn) [Example 11, 2-[(2-aminoethoxy)methyl]-4-(2-chlorophenyl)-3-ethoxycarbonyl-5-methoxycarbonyl-6-methyl-1,4-dihydropyridine maleate], the “activity ranking by IC50” value under setting [1] is listed as “most active compounds”. Moreover, under setting [2], the IC50 stood at 3.2 nM. As for `CCOC(=O)C1=C(COCCNC)NC(C)=C(C(=O)OC)C1c1ccccc1OC` (stereo not drawn) [Example 4], under setting [3], the IC50 stood at 63 nM.

In the case of `CCOC(=O)C1=C(COCCNC)NC(C)=C(C(=O)OC)C1c1ccccc1` (stereo not drawn) [Example 2], the IC50 under setting [3] is 32 nM. `CCOC(=O)C1=C(COCCNCC(N)=O)NC(C)=C(C(=O)OC)C1c1ccccc1Cl` (stereo not drawn) [Example 19, 2-(2-{[4-(2-Chlorophenyl)-3-ethoxycarbonyl-5-methoxycarbonyl-6-methyl-1,4-dihydropyrid-2-yl]methoxy}ethylamino)acetamide]: the IC50 under setting [3] amounted to 4 nM.

Take `CCOC(=O)C1=C(COCCN)NC(C)=C(C(=O)OC)C1c1ccccc1F` (stereo not drawn) [Example 15]: the IC50 under setting [3] stood at 18 nM. Regarding `CCOC(=O)C1=C(COCCNCc2ccccc2)NC(C)=C(C(=O)OC)C1c1ccccc1Cl` (stereo not drawn) [Example 8], the IC50 under setting [3] was 50 nM. In the case of `CCOC(=O)C1=C(COCCNC)NC(C)=C(C(=O)OC)C1c1c(F)cccc1Cl` (stereo not drawn) [Example 7], the IC50 under setting [3] worked out at 13 nM. In the case of `CCOC(=O)C1=C(COCCNCCOC)NC(C)=C(C(=O)OC)C1c1ccccc1Cl` (stereo not drawn) [Example 10], under setting [3], the IC50 was determined as 25 nM. Turning to `CCOC(=O)C1=C(COCCNC)NC(C)=C(C(=O)OC)C1c1ccccc1Cl.O=C(O)C(=O)O` (stereo not drawn) [Example 1, 4-(2-chlorophenyl)-2-[2-(methylamino)ethoxymethyl]-3-ethoxycarbonyl-5-methoxycarbonyl-6-methyl-1,4-dihydropyridine, oxalate salt], under setting [3], the IC50 came to 3.2 nM. Moreover, the “activity ranking by IC50” value under setting [1] is listed as “most active compounds”. Take `CCOC(=O)C1=C(COCCNC)NC(C)=C(C(=O)OC)C1c1cccc(Cl)c1` (stereo not drawn) [Example 5]: the IC50 under setting [3] worked out at 40 nM. For `CCOC(=O)C1=C(COCCNC)NC(C)=C(C(=O)OC)C1c1ccccc1Cl.O=C(O)/C=C\C(=O)O` (stereo not drawn) [Example 24, 4-(2-chlorophenyl)-2-[2-(N-methylamino)ethoxymethyl]-3-ethoxycarbonyl-5-methoxycarbonyl-6-methyl-1,4-dihydropyridine maleate], the IC50 under setting [4] stood at 3.2 nM. Further, the “activity ranking by IC50” value under setting [1] is “most active compounds”. For `CCOC(=O)C1=C(COCCNC)NC(C)=C(C(=O)OC)C1c1cccc(O)c1Cl` (stereo not drawn) [Example 6], under setting [3], the IC50 worked out at 200 nM.

As to `CCOC(=O)C1=C(COCCNC)NC(C)=C(C(=O)OC)C1c1ccccc1F` (stereo not drawn) [Example 3], the IC50 under setting [3] came to 20 nM. `CCOC(=O)C1=C(COCCN)NC(C)=C(C(=O)OC)C1c1cccc(Cl)c1Cl` (stereo not drawn) [Example 13]: the IC50 under setting [3] came out at 6.3 nM. Regarding `CCOC(=O)C1=C(COCCN)NC(C)=C(C(=O)OC)C1c1ccccc1Cl` (stereo not drawn) [Example 12, 2-[2-aminoethoxy)methyl]-4-(2-chlorophenyl)-3-ethoxycarbonyl-5-methoxycarbonyl-6-methyl-1,4-dihydropyridine maleate], under setting [4], the IC50 was 3.2 nM. Besides, under setting [1], the “activity ranking by IC50” value was “most active compounds”. Regarding `CCOC(=O)C1=C(COCCNCC(=O)NC)NC(C)=C(C(=O)OC)C1c1ccccc1Cl` (stereo not drawn) [Example 20], under setting [3], the IC50 worked out at 22 nM. In the case of `CCOC(=O)C1=C(COCCNC)NC(C)=C(C(=O)OC)C1c1ccccc1Cl.O=C(O)/C=C\C(=O)O` (stereo not drawn) [Example 23, 4-(2-Chlorophenyl)-2-[2-(N-methylamino)ethoxymethyl]-3-ethoxycarbonyl-5-methoxycarbonyl-6-methyl-1,4-dihydropyridine maleate], the IC50 under setting [4] was determined as 3.2 nM. The “activity ranking by IC50” value under setting [1] is reported as “most active compounds”. Regarding `CCOC(=O)C1=C(COCCN)NC(C)=C(C(=O)OC)C1c1ccccc1` (stereo not drawn) [Example 14], the IC50 under setting [3] stood at 160 nM.

The values are drawn from US4572909A, “2-(Secondary aminoalkoxymethyl) dihydropyridine derivatives as anti-ischaemic and antihypertensive agents” (Pfizer Inc., priority 1982, dated 1986).
